By IC50 is commonly meant the concentration needed to halve the response being measured. Low readings indicate greater potency in that assay, high ones weaker potency in that assay.

The experiment in a line: Inhibition of Escherichia coli BL21-A1 MurD.
In turn, `O=C(O)CC[C@@H](NS(=O)(=O)c1ccc2cc(OCc3ccccc3)ccc2c1)C(=O)O` displayed an IC50 of 239 µM.
With `O=C(O)CC[C@@H](NS(=O)(=O)c1ccc2cc(OCCCc3ccccc3)ccc2c1)C(=O)O` the figure was 132 µM; with `CCCCOc1ccc2cc(S(=O)(=O)N[C@@H](CCC(=O)O)C(=O)O)ccc2c1`, 710 µM; with `O=C(O)CC[C@@H](NS(=O)(=O)c1ccc2cc(OCC(=O)O)ccc2c1)C(=O)O`, 630 µM.
With `O=C(O)CC[C@@H](NS(=O)(=O)c1ccc2cc(OC3CCCC3)ccc2c1)C(=O)O` the figure was 400 µM.
For the compound `O=C(O)CC[C@@H](NS(=O)(=O)c1ccc2ccccc2c1)C(=O)O`, the IC50 came out at 810 µM.
With `CCCCOc1ccc2ccc(S(=O)(=O)N[C@H](CCC(=O)O)C(=O)O)cc2c1` the figure was 180 µM.
As for `CCOC(=O)COc1ccc2cc(S(=O)(=O)N[C@H](CCC(=O)O)C(=O)O)ccc2c1`, the figure is 192 µM.
As for `CCCCOc1ccc2cc(S(=O)(=O)N[C@H](CCC(=O)O)C(=O)O)ccc2c1`, the figure is 280 µM.

Source of the values: ChEMBL document CHEMBL1138473, “NMR and molecular dynamics study of the binding mode of naphthalene-N-sulfonyl-D-glutamic acid derivatives: novel MurD ligase inhibitors” (J Med Chem, 2009).
